Legend:
Conditions in all cases: inhibition class in words
11β-HSD1 Dehydrogenase = 11β-HSD1 Dehydrogenase (Rattus norvegicus, UniProt P16232); assay: Inhibition of 11β-HSD1 dehydrogenase activity (Table 1); type: biochemical
11β-HSD1 Reductase = 11β-HSD1 Reductase (Rattus norvegicus, UniProt P16232); assay: Inhibition of 11β-HSD1 reductase activity (Table 1)
11β-HSD2 Dehydrogenase = biological target: T1, 11β-HSD2 Dehydrogenase (Ovis aries, UniProt P50168); assay: Inhibition of 11β-HSD2 dehydrogenase activity (Table 1); type: biochemical, sheep
T1 construct: using 50 nM corticosterone substrate concentration and sheep kidney microsomes; from tissue; host or cells: sheep kidney microsomes
T1 sequence (P50168 1-427): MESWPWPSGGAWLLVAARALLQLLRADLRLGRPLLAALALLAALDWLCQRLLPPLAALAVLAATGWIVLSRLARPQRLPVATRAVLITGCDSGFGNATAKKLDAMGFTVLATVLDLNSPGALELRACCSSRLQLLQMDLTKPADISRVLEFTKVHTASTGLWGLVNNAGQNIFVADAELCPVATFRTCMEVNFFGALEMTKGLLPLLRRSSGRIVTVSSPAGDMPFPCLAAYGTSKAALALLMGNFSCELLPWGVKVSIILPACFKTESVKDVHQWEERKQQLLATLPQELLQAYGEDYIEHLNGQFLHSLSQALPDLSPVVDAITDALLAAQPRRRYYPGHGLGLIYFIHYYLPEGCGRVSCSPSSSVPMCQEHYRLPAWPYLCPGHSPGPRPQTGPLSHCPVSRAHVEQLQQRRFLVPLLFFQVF

Chain of 11β-HSD1 Reductase (P16232 whole entry): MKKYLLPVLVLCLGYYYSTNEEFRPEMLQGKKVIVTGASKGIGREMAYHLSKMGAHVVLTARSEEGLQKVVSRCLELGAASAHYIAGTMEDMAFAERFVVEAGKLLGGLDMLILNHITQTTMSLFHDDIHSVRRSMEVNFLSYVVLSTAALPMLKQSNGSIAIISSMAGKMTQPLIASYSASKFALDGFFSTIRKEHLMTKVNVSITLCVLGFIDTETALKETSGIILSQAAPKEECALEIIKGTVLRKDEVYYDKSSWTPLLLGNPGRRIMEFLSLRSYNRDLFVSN
Chain of 11β-HSD1 Dehydrogenase (P16232 whole entry): as above

Molecule | 11β-HSD1 Dehydrogenase (11β-HSD1 Dehydrogenase) | 11β-HSD1 Reductase (11β-HSD1 Reductase) | 11β-HSD2 Dehydrogenase (11β-HSD2 Dehydrogenase)
CC(=O)[C@H]1CC[C@@H]2[C@@H]3CCC4=CC(=O)CC[C@]4(C)[C@@H]3[C@@H](O)C[C@]12C [11β-OH-progesterone] | Potent Inhibitor (Non-Selective) | No Inhibition | –
C[C@]12CC[C@H](O)C[C@@H]1CC[C@H]1[C@@H]3CC[C@H](C(=O)CO)[C@@]3(C)CC(=O)[C@@H]12 [3α,5α-tetrahydro-11-dehydro-corticosterone] | No Inhibition | Potent Inhibitor | Potent Inhibitor
C[C@]12CCC(=O)C=C1CC[C@@H]1[C@H]2C(=O)C[C@]2(C)C(=O)CC[C@H]12 (stereo in doubt) [11-Keto-androstenedione] | No Inhibition | Selective Inhibitor | No Inhibition
C[C@]12CC[C@H](O)C[C@@H]1CC[C@@H]1[C@@H]2[C@@H](O)C[C@]2(C=O)[C@@H](C(=O)CO)CC[C@@H]12 [3α,5α-reduced aldosterone] | Moderate Inhibitor | No Inhibition | Potent Inhibitor
CC(=O)[C@H]1CC[C@H]2[C@@H]3CC[C@H]4C[C@@H](O)CC[C@]4(C)[C@H]3[C@@H](O)C[C@]12C [3α,5α-reduced-11β-OH-progesterone] | Potent Inhibitor (Non-Selective) | No Inhibition | Potent Inhibitor (Non-Selective)
C[C@]12CC(=O)[C@H]3[C@@H](CCC4=CC(=O)CC[C@@]43C)[C@@H]1CC[C@@H]2O [11-Keto-testosterone] | No Inhibition | Selective Inhibitor | No Inhibition
C[C@]12CC[C@H](O)C[C@@H]1CC[C@@H]1[C@@H]2[C@@H](O)C[C@]2(C)[C@@H](C(=O)CO)CC[C@@H]12 [3α,5α-reduced-corticosterone] | Potent Inhibitor | No Inhibition | Potent Inhibitor
C[C@]12CC[C@H](O)C[C@@H]1CC[C@@H]1[C@@H]2[C@@H](O)C[C@]2(C)[C@@H](O)CC[C@@H]12 [3α,5α-reduced-11β-OH-testosterone] | Potent Inhibitor (Non-Selective) | No Inhibition | Potent Inhibitor (Non-Selective)
chenodeoxycholic acid | Selective inhibitor | No Inhibition | No Inhibition
CC(=O)[C@H]1CC[C@@H]2[C@@H]3CCC4=CC(=O)CC[C@]4(C)[C@@H]3C(=O)C[C@]12C [11-Keto-progesterone] | No Inhibition | Selective Inhibitor | Potent Inhibitor
C[C@]12CC[C@H](O)C[C@@H]1CC[C@H]1[C@@H]3CC[C@H](O)[C@@]3(C)CC(=O)[C@@H]12 [3α,5α-reduced-11-keto-testosterone] | No Inhibition | Selective Inhibitor | –
C[C@]12CC[C@H](O)C[C@@H]1CC[C@@H]1[C@@H]2C(=O)C[C@]2(C)C(=O)CC[C@@H]12 [3α,5α-reduced-11-keto-androstenedione] | No Inhibition | Selective Inhibitor | –

From patent US20060148725A1, “Selective 11beta HSD inhibitors and methods of use thereof” (The Miriam Hospital, priority 2001, published 2006)
